Values quoted from earlier work as cited in patent US7208615B2, “Triple mineral salts of (-)-hydroxycitric acid and processes for preparing the same” (Laila Impex, priority 2004, dated 2007).

Key:
[1] = background art; forms lactone, liquid form unstable during storage
[2] = background art (US 5,783,603)

Compound	stability of free acid form [1]	hygroscopicity [2]
O=C(O)CC(O)(C(=O)O)C(O)C(=O)O (single isomer, unassigned; (-)) [(−)-hydroxycitric acid]	unstable	
potassium salt of HCA		hygroscopic
